Measurements published in patent US11147801B2, “Methods of use for trisubstituted benzotriazole derivatives as dihydroorotate oxygenase inhibitors” (Aurigene Discovery Technologies Limited, priority 2017, dated 2021).

Columns and labels:
Ramos cells = experiment: Ramos proliferation assay (XTT); assay type: cell-based; details: Homo sapiens, 72 hrs
Excerpt: Cell proliferation assay is a sensitive method for quantification of viable cells in cytotoxicity or proliferation assay. The XTT (2,3-bis[2-Methoxy-4-nitro-5-sulfophenyl]-2 H-tetrazolium-5-carboxyanilide inner salt) system is a means of measuring the activity of living cells via mitochondrial dehydrogenases. Mitochondrial dehydrogenases of viable cells cleave the tetrazolium ring of XTT, yielding orange formazon crystals which are soluble in aqueous solutions. The XTT solution is potentiated by the addition of an electron coupling agent, phenazine methosulphate (PMS) to the reaction. The resulting orange colour is spectrophotometrically measured at 450 nm. An increase or decrease in cell numbers results in a concomitant change in the amount of formazon formed, indicating the degree of cytotoxicity caused by the test material.
Dissolve 17.7 g IMDM (Iscove's Modified Dulbecco's Medium) powder, 1.5 g sodium bicarbonate pH 7.2-7.4 in 1 L MiliQ water, add 1% Pencilin/ Streptomycin and 10% FBS.
Dissolve 10.6 g Ham's F12 powder, 1.5 g sodium bicarbonate pH 7.2-7.4 in 1 L MiliQ water, add 1% Penicillin/Streptomycin. DMSO used as vehicle.
Ramos cells were re-suspended to a density of 1×10^5 cells/ ml in complete IMDM medium. 95 μL of this cell suspension was added to the 96-well plate to seed ˜10,000 cells per well. The plates were incubated at 37° C. under a humidified atmosphere of 5% CO2 for ˜1 hour before compound addition.
Test compounds (Refer to Table 1) were dissolved in 100% DMSO to generate a 2/6/10/20 mM stock solution. A 200× concentration of the required final concentrations was prepared in DMSO. 10 μL of each concentration (200×) was then diluted in 90 μL of serum-free Ham's F12 medium to get an intermediate concentration of 20× in medium. The DMSO concentration in this step is 10% (Intermediate dilution). 5 μL of each intermediate dilution was then added in triplicates in the previously seeded 96-well plate. The final DMSO concentration was 0.5% in the experimental wells. Cells treated with 0.5% DMSO served as positive control. 100 μL, of complete IMDM medium served as media blank for data analysis. 200 μL, of 1× PBS was added in all corner wells of the assay plate. Plates were then incubated for 72 hrs in an incubator with 5% CO2 at 37° C.
On termination day, 100 μl of XTT solution (1 mg/ml XTT supplemented with 25 μM PMS in Ham's F12 medium) was added to each well. Plates were incubated for 2 hrs. The amount of formazon produced was determined by reading the absorbance of the plate using VICTOR X5 multilabel plate reader at wavelength of 450 nm. The IC50 values were determined as concentrations that reduced cell viability by 50% and the curve was plotted with GraphPad Prism 6.0.
Percent (%) Inhibition was calculated by normalizing DMSO control values to 100% using the formula: % Inhibition=[…](Abs450test compound−blank)/(Abs450positive control−blank)*100
Test compound contains cells, test compound, IMDM medium and 0.5% DMSO
Positive control contains cells, IMDM medium and 0.5% DMSO
Blank contains IMDM medium

RL = experiment: Tumor cell line panel screen, 72 hrs; assay type: cell-based; details: Homo sapiens, non-Hodgkin's lymphoma
Procedure: (§1) A tumor cell line panel screen aimed at identifying tumor cell subsets that were particularly sensitive to inhibition of DHODH with Compound 1 was performed. Compound 1 is represented by the following structural formula: […]
(§2) These cell lines were treated with Compound 1 for a total of 72 hrs.
(§3) Table 1 is a list of some of the sensitive cell lines to Compound 1 along with GI50 values and max growth response. A maximum inhibition of 100 represents complete growth inhibition; a max inhibition value>100 represents cell killing.

SR786 = experiment: Tumor cell line panel screen, 72 hrs; assay type: cell-based; details: Homo sapiens, SR-786, SR786, anaplastic large cell lymphoma
Procedure: as §1, §2, §3

CJM = experiment: Tumor cell line panel screen, 72 hrs; assay type: cell-based; details: Homo sapiens, melanoma
Procedure: as §1, §2, §3

SUM159PT = experiment: Tumor cell line panel screen, 72 hrs; assay type: cell-based; details: Homo sapiens, SUM-159-PT, triple negative breast cancer
Procedure: as §1, §2, §3

KYSE510 = experiment: Tumor cell line panel screen, 72 hrs; assay type: cell-based; details: Homo sapiens, KYSE-510, KYSE510, esophageal squamous cell carcinoma
Procedure: as §1, §2, §3

SUDHL5 = experiment: Tumor cell line panel screen, 72 hrs; assay type: cell-based; details: Homo sapiens, SU-DHL-5, SUDHL5, diffuse large B cell lymphoma
Procedure: as §1, §2, §3

MOLM13 = experiment: Tumor cell line panel screen, 72 hrs; assay type: cell-based; details: Homo sapiens, MOLM-13, MOLM13, acute myeloid leukemia
Procedure: as §1, §2, §3

SUDHL1 = experiment: Tumor cell line panel screen, 72 hrs; assay type: cell-based; details: Homo sapiens, SU-DHL-1, SUDHL1, anaplastic large cell lymphoma
Procedure: as §1, §2, §3

DU145 = experiment: Tumor cell line panel screen, 72 hrs; assay type: cell-based; details: Homo sapiens, DU-145, DU145, prostate cancer
Procedure: as §1, §2, §3

MV411 = experiment: Tumor cell line panel screen, 72 hrs; assay type: cell-based; details: Homo sapiens, MV4-11, MV411, child acute myeloid leukemia
Procedure: as §1, §2, §3

JYSE150 = experiment: Tumor cell line panel screen, 72 hrs; assay type: cell-based; details: Homo sapiens, JYSE150, esophageal squamous cell carcinoma
Procedure: as §1, §2, §3

DU4475 = experiment: Tumor cell line panel screen, 72 hrs; assay type: cell-based; details: Homo sapiens, DU-4475, DU4475, triple negative breast cancer
Procedure: as §1, §2, §3

JVM13 = experiment: Tumor cell line panel screen, 72 hrs; assay type: cell-based; details: Homo sapiens, JVM13, B-prolymphocytic leukemia
Procedure: as §1, §2, §3

OCILY8 = experiment: Tumor cell line panel screen, 72 hrs; assay type: cell-based; details: Homo sapiens, OCI-Ly8, OCILY8, diffuse large B cell lymphoma
Procedure: as §1, §2, §3

MINO = experiment: Tumor cell line panel screen, 72 hrs; assay type: cell-based; details: Homo sapiens, mantle cell lymphoma
Procedure: as §1, §2, §3

DLBCL_1 tumor = experiment: Patient-derived DLBCL xenograft model DLBCL_1 (triple hit); assay type: in vivo, CB17 SCID mice; details: 100 mg/kg BID PO
Procedure: A screen was next performed using a small number of mice/group to assess efficacy of Compound 1 in AML and DLBCL patient-derived xenograft models. Tumor-bearing mice (n=3/group) were treated with vehicle or Compound 1 at 100 mg/kg BID PO.

Cc1ccccc1-c1ccc(-c2cc(C(=O)O)c3c(c2)nnn3C)cc1 [Compound 1, 1-methyl-5-(2′-methyl-[1,1′-biphenyl]-4-yl)-1H-benzo[d][1,2,3]triazole-7-carboxylic Acid]
inhibition at 30 µM (Ramos cells; 30 μM, read-out: Maximum % Inhibition at 30 μM): 107% | IC50 (Ramos cells; XTT): 49 nM | GI50 (RL): 80 nM | GI50 (SR786): 50 nM | GI50 (CJM): 620 nM | GI50 (SUM159PT): 140 nM | GI50 (KYSE510): 130 nM | GI50 (SUDHL5): 20 nM | GI50 (MOLM13): 60 nM | GI50 (SUDHL1): 40 nM | GI50 (DU145): 480 nM | GI50 (MV411): 270 nM | GI50 (JYSE150): 100 nM | GI50 (DU4475): 100 nM | GI50 (JVM13): 20 nM | GI50 (OCILY8): 20 nM | GI50 (MINO): 30 nM | TGI (DLBCL_1 tumor): > 60%
